Counter-ions that a name gives are not always drawn.
biological target: T1, human vasopressin V1b receptor (Homo sapiens, UniProt P47901); assay: Vasopressin V1b receptor binding test; details: membranes of CHO-K1 cells, displacement of 1.5 nM 3H-AVP
T1 construct: expressed in transfected cells; host or cells: CHO-K1 (cell line hV1b_3H2_CHO), membrane preparation
T1 sequence (P47901 1-424): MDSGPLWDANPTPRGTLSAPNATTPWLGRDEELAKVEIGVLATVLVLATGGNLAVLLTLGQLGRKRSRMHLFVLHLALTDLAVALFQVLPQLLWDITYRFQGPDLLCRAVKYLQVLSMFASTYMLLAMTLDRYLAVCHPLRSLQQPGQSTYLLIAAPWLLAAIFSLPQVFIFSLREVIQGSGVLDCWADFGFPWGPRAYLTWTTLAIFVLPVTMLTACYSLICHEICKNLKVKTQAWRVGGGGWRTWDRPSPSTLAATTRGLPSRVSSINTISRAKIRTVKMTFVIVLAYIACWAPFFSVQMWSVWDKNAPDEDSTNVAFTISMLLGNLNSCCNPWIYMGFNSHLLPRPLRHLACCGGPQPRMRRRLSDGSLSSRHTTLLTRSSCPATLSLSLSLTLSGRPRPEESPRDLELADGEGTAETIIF
Method in brief: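 Radioligand competition binding to human V1b receptor membranes in 50 mM Tris, 10 mM MgCl2, 0.1% BSA, pH 7.4; nonspecific binding with 1 μM AVP.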

Row | Ki [nM] | Compound
1 | 50 to 500 | COc1ccc(S(=O)(=O)N2C(=O)C(c3ccccc3OC)(N3C[C@H]4C[C@@H]3CN4c3ccncc3)c3cc(Cl)ccc32)c(OC)c1 (stereo partly drawn) [Example 27, 5-Chloro-1-(2,4-dimethoxy-benzenesulphonyl)-3-(2-methoxyphenyl)-3-((1R,4R)-5-pyridin-4-yl-2,5-diaza-bicyclo[2.2.1]hept-2-yl)-1,3-dihydro-indol-2-one]
2 | < 50 | COc1ccc(S(=O)(=O)N2C(=O)C(c3cc(OC)ccc3OC)(N3CCN(c4ccncc4)CC3)c3cc(OC)ccc32)c(OC)c1 (centres unmarked) [Example 28, 1-(2,4-Dimethoxy-benzenesulphonyl)-3-(2,5-dimethoxyphenyl)-5-methoxy-3-(4-pyridin-4-yl-piperazin-1-yl)-1,3-dihydro-indol-2-one]
3 | < 50 | COc1ccc(C2(N3CCN(c4ccncc4)CC3)C(=O)N(S(=O)(=O)c3ccc(OC)cc3OC)c3ccc(Cl)cc32)c(OC)c1 (centres unmarked) [Example 30, 5-Chloro-1-(2,4-dimethoxy-benzenesulphonyl)-3-(2,4-dimethoxyphenyl)-3-(4-pyridin-4-yl-piperazin-1-yl)-1,3-dihydro-indol-2-one, HCl salt]
4 | < 50 | COc1ccc(S(=O)(=O)N2C(=O)C(c3cccc(OC)c3OC)(N3CCN(c4ccncc4)CC3)c3cc(Cl)ccc32)c(OC)c1 (centres unmarked) [Example 31, 5-Chloro-1-(2,4-dimethoxy-benzenesulphonyl)-3-(2,3-dimethoxyphenyl)-3-(4-pyridin-4-yl-piperazin-1-yl)-1,3-dihydro-indol-2-one, HCl salt]
5 | 50 to 500 | COCc1ccccc1C1(N2CCN(c3ccncc3)CC2)C(=O)N(S(=O)(=O)c2ccc(OC)cc2OC)c2ccc(Cl)cc21 (centres unmarked) [Example 32, 5-Chloro-1-(2,4-dimethoxy-benzenesulphonyl)-3-(2-methoxymethylphenyl)-3-(4-pyridin-4-yl-piperazin-1-yl)-1,3-dihydro-indol-2-one]
6 | 50 to 500 | CCOc1ccccc1C1(N2CCN(c3ccnc(C)c3)CC2)C(=O)N(S(=O)(=O)c2ccc(OC)cc2OC)c2ccc(C#N)cc21 (centres unmarked) [Example 35, 5-Cyano-1-(2,4-dimethoxy-benzenesulphonyl)-3-(2-ethoxyphenyl)-3-[4-(2-methyl-pyridin-4-yl)-piperazin-1-yl]-2,3-dihydro-1H-indol-2-one]
7 | 50 to 500 | CCOc1ccccc1C1(N2CCN(c3ccncc3)CC2)C(=O)N(S(=O)(=O)c2ccc(NC(C)=O)cc2)c2ccc(C#N)cc21 (centres unmarked) [Example 46, N-{4-[5-Cyano-3-(2-ethoxyphenyl)-2-oxo-3-(4-pyridin-4-yl-piperazin-1-yl)-2,3-dihydro-indole-1-sulphonyl]-phenyl}-acetamide]
8 | 50 to 500 | CCOc1ccccc1C1(N2CCN(c3ccncc3)CC2)C(=O)N(S(=O)(=O)c2ccc(OC)cc2OC)c2ccc(-c3ccco3)cc21 (centres unmarked) [Example 47, 1-(2,4-Dimethoxy-benzenesulphonyl)-3-(2-ethoxyphenyl)-5-furan-2-yl-3-(4-pyridin-4-yl-piperazin-1-yl)-1,3-dihydro-indol-2-one]
9 | 50 to 500 | CCOc1ccccc1C1(N2CCN(c3ccncc3)CC2)C(=O)N(S(=O)(=O)c2cccc(N)c2)c2ccc(C#N)cc21 (centres unmarked) [Example 48, 5-Cyano-1-(3-amino-benzenesulphonyl)-3-(2-ethoxyphenyl)-3-(4-pyridin-4-yl-piperazin-1-yl)-2,3-dihydro-1H-indol-2-one]
10 | < 50 | CCOc1ccc(OC)cc1C1(N2CCN(c3ccnc(C)c3)CC2)C(=O)N(S(=O)(=O)c2ccc(OC)cc2OC)c2ccc(C#N)cc21 (centres unmarked) [Example 50, 5-Cyano-1-(2,4-dimethoxy-benzenesulphonyl)-3-(2-ethoxy-5-methoxyphenyl)-3-[4-(2-methyl-pyridin-4-yl)-piperazin-1-yl]-2,3-dihydro-1H-indol-2-one]
11 | < 50 | CCOc1ccc(OC)cc1C1(N2C[C@@H]3C[C@H]2CN3c2ccncc2)C(=O)N(S(=O)(=O)c2ccc(OC)cc2OC)c2ccc(C#N)cc21 (stereo partly drawn) [Example 52, 5-Cyano-1-(2,4-dimethoxy-benzenesulphonyl)-3-(2-ethoxy-5-methoxyphenyl)-3-((1S,4S)-5-pyridin-4-yl-2,5-diaza-bicyclo[2.2.1]hept-2-yl)-2,3-dihydro-1H-indol-2-one]
12 | 50 to 500 | COc1ccc(S(=O)(=O)N2C(=O)C(c3cc(OC)ccc3OC(C)C)(N3CCN(c4ccncc4)CC3)c3cc(C#N)ccc32)c(OC)c1 (centres unmarked) [Example 53, 5-Cyano-1-(2,4-dimethoxy-benzenesulphonyl)-3-(2-isopropoxy-5-methoxyphenyl)-3-(4-pyridin-4-yl-piperazin-1-yl)-2,3-dihydro-1H-indol-2-one]
13 | < 50 | CCOc1ccc(OC)cc1C1(N2CCN(c3ccncc3)CC2)C(=O)N(S(=O)(=O)c2ccc(OC)cc2OC)c2ccc(C#N)cc21 (centres unmarked) [Example 55, 5-Cyano-1-(2,4-dimethoxy-benzenesulphonyl)-3-(2-ethoxy-5-methoxyphenyl)-3-(4-pyridin-4-yl-piperazin-1-yl)-2,3-dihydro-1H-indol-2-one]
14 | 50 to 500 | CCOc1ccccc1C1(N2CCCN(c3ccncc3)CC2)C(=O)N(S(=O)(=O)c2ccc(OC)cc2OC)c2ccc(C#N)cc21 (centres unmarked) [Example 56, 5-Cyano-1-(2,4-dimethoxy-benzenesulphonyl)-3-(2-ethoxyphenyl)-3-(4-pyridin-4-yl-[1.4]diazepan-1-yl)-2,3-dihydro-1H-indol-2-one]
15 | < 50 | CCOc1cc(F)ccc1C1(N2CCN(c3ccncc3)CC2)C(=O)N(S(=O)(=O)c2ccc(OC)cc2OC)c2ccc(C#N)cc21 (centres unmarked) [Example 57, 5-Cyano-1-(2,4-dimethoxy-benzenesulphonyl)-3-(2-ethoxy-4-fluorophenyl)-3-(4-pyridin-4-yl-piperazin-1-yl)-2,3-dihydro-1H-indol-2-one]
16 | < 50 | CCOc1ccc(OC)cc1C1(N2CC3CN(c4ccncc4)CC3C2)C(=O)N(S(=O)(=O)c2ccc(OC)cc2OC)c2ccc(C#N)cc21 (centres unmarked) [Example 58, 5-Cyano-1-(2,4-dimethoxy-benzenesulphonyl)-3-(2-ethoxy-5-methoxyphenyl)-3-(5-pyridin-4-yl-hexahydro-pyrrolo[3,4-c]pyrrol-2-yl)-2,3-dihydro-1H-indol-2-one]
17 | < 50 | COc1ccc(S(=O)(=O)N2C(=O)C(c3cc(OC)ccc3OC)(N3CCN(c4ccncc4)CC3)c3cc(C#N)ccc32)c(OC)c1 (centres unmarked) [Example 59, 5-Cyano-1-(2,4-dimethoxy-benzenesulphonyl)-3-(2,5-dimethoxyphenyl)-3-(4-pyridin-4-yl-piperazin-1-yl)-2,3-dihydro-1H-indol-2-one]
18 | < 50 | CCOc1ccc(OC)cc1C1(N2CCCN(c3ccncc3)CC2)C(=O)N(S(=O)(=O)c2ccc(OC)cc2OC)c2ccc(C#N)cc21 (centres unmarked) [Example 60, 5-Cyano-1-(2,4-dimethoxy-benzenesulphonyl)-3-(2-ethoxy-5-methoxyphenyl)-3-(4-pyridin-4-yl-[1.4]diazepan-1-yl)-2,3-dihydro-1H-indol-2-one]
19 | 50 to 500 | CCOc1ccc(OC)cc1C1(N2CCN(c3ccncc3)CC2)C(=O)N(S(=O)(=O)c2ccc(C#N)cc2)c2ccc(C#N)cc21 (centres unmarked) [Example 61, 5-Cyano-1-(4-cyano-benzenesulphonyl)-3-(2-ethoxy-5-methoxyphenyl)-3-(4-pyridin-4-yl-piperazin-1-yl)-2,3-dihydro-1H-indol-2-one]
20 | < 50 | CCOc1ccc(OC)cc1C1(N2CCN(c3ccncc3)CC2)C(=O)N(S(=O)(=O)c2ccc(OC)cc2)c2ccc(C#N)cc21 (centres unmarked) [Example 62, 5-Cyano-3-(2-ethoxy-5-methoxyphenyl)-1-(4-methoxy-benzenesulphonyl)-3-(4-pyridin-4-yl-piperazin-1-yl)-2,3-dihydro-1H-indol-2-one]
